One assay addresses AAK1 (full-length human protein) (Homo sapiens, UniProt Q2M2I8). As to the kind of experiment: P81 filter plate assay. The format is biochemical. To be noted: 0.2 nM-scale full-length human AAK1, Mu2 substrate, 33P-ATP, one hour at room temperature; class symbols. As for the experimental part: Compounds were serially diluted into a Labcyte LDV plate (Labcyte, cat# LP-0200) using a Mutiprobe (PerkinElmer) and Biomek FX (Beckman Coulter) so that the highest compound concentration was at 96 μM. Compounds were then pinged (75 nL per well) into a Greiner 384-well reaction plate (Greiner, #781076) using an ECHO 550 Liquid Handler (Labcyte). A total of 12 μl reaction buffer (IMAP buffer containing Tween and DTT, from Molecular Devices) was then added to each well of columns 1 and 13 for the negative controls and 12 μl of 2×AAK1 (0.2 nM full-length human protein, NCBI accession no. NP_055726.2) was added to the remaining wells. Enzyme was then pre-incubated with compound for 10 minutes at room temperature. Reactions were initiated upon Minitrak (PerkinElmer) addition of 12 μl substrate mix containing 2× Mu2 (0.2 μM, full length human protein), 2× cold ATP (2 μM), and 1.3 μCi of hot ^33P-ATP. Reactions proceeded for one hour at room temperature. Meanwhile, Millipore 384-well P81 filter plates (Millipore, catalog # MZPHN0 W10) were placed on a plate washer (Zoom ZW, from Titertek) and pre-wet with 50 μl 1% phosphoric acid. Kinase reactions were then stopped upon addition of 24 μl of 2% phosphoric acid to each well and the Minitrak was then used to transfer 40 μl from each well into the pre-wet Millipore 384-well P81 filter plates. Reaction mixtures were incubated for 10 minutes at room temperature in the P81 plates, followed by washing five times with 100 μl/well of 1% phosphoric acid using the Zoom filter washer. The bottom of each filter plate was sealed followed by addition of 20 μl Microscint 40 to each well, sealing the top of the plates with Flashplate cover, and then waiting one hour until reading on the TopCount (Perkin Elmer).
Chain of AAK1 (full-length human protein) (Q2M2I8 1-863 isoform Q2M2I8-2): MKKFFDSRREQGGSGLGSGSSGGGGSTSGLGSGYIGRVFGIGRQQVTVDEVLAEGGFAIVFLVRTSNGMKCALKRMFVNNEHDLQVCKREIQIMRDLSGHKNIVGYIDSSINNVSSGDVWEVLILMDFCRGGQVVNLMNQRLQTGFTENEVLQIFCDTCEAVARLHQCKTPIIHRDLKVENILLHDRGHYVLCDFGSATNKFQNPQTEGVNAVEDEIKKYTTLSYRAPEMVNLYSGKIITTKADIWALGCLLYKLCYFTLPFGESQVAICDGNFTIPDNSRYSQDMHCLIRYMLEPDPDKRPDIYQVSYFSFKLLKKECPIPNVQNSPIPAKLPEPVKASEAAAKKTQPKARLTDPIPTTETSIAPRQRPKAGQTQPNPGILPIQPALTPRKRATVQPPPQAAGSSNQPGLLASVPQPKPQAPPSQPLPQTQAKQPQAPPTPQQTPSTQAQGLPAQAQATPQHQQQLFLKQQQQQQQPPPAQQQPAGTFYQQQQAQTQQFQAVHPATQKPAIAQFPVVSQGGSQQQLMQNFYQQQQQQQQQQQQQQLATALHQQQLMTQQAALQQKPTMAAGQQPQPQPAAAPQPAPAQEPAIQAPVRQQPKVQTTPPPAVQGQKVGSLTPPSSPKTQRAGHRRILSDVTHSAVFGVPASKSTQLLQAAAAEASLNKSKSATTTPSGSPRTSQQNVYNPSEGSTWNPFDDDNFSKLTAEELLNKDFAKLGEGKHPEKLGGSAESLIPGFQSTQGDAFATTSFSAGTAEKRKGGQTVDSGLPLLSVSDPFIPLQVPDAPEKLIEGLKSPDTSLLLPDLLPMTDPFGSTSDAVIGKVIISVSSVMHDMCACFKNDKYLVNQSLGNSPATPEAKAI
T1 sequence (Q2M2I8 1-863 isoform Q2M2I8-2): as above
As usually defined, the IC50 is the concentration that inhibits the measured activity by half. A low value points to inhibition by little substance. For `COc1ncc(F)cc1-c1cnc2ccc(-c3ccn(CCC(C)C)c(=O)c3)nn12` [4-(3-(5-Fluoro-2-methoxypyridin-3-yl)imidazo[1,2-b]pyridazin-6-yl)-1-isopentylpyridin-2(1H)-one], the IC50 is at most 10 nM.

Regarding `CC(C)C[C@H](N)Cn1ccc(-c2ccc3ncc(Br)n3n2)cc1=O` [(S)-1-(2-Amino-4-methylpentyl)-4-(3-bromoimidazo[1,2-b]pyridazin-6-yl)pyridin-2(1H)-one], the IC50 lay in the range of 100 to 1000 nM.

`CCOc1ncccc1-c1cnc2ccc(-c3ccn(CCC(C)C)c(=O)c3)nn12` [4-(3-(2-Ethoxypyridin-3-yl)imidazo[1,2-b]pyridazin-6-yl)-1-isopentylpyridin-2(1H)-one] registered an IC50 of at most 10 nM.

`Cc1cnc2ccc(-c3ccn(CCC(C)(C)C)c(=O)c3)nn12` [1-(3,3-Dimethylbutyl)-4-(3-methylimidazo[1,2-b]pyridazin-6-yl)pyridin-2(1H)-one] yielded an IC50 of 10 to 100 nM.

Take `CC(C)CCn1cc(-c2ccc3ncc(Br)n3n2)cn1` [3-Bromo-6-(1-isopentyl-1H-pyrazol-4-yl)imidazo[1,2-b]pyridazine]: the concentration for half-maximal inhibition (IC50) is at most 10 nM.

`CC(C)C[C@H](N)Cn1ccc(-c2ccc3ncc(Cl)n3n2)cc1=O` [(S)-1-(2-Amino-4-methylpentyl)-4-(3-chloroimidazo[1,2-b]pyridazin-6-yl)pyridin-2(1H)-one] had an IC50 of 100 to 1000 nM.

`CC(C)CCn1cc(-c2ccc3nccn3n2)cn1` [6-(1-Isopentyl-1H-pyrazol-4-yl)imidazo[1,2-b]pyridazine]: the IC50 was 100 to 1000 nM.

In the case of `CC(C)(C)Cn1cc(-c2ccc3ncc(Br)n3n2)cn1` [3-Bromo-6-(1-neopentyl-1H-pyrazol-4-yl)imidazo[1,2-b]pyridazine], the half-maximal inhibitory concentration (IC50) fell in the range of 10 to 100 nM.

In turn, `COc1ncccc1-c1cnc2ccc(-c3cnn(C(=O)OC(C)C)c3)nn12` [Isopropyl 4-(3-(2-methoxypyridin-3-yl)imidazo[1,2-b]pyridazin-6-yl)-1H-pyrazole-1-carboxylate] displayed an IC50 of at most 10 nM.

`COc1ncccc1-c1cnc2ccc(-c3cnn(CC(C)(C)C)c3)nn12` [3-(2-Methoxypyridin-3-yl)-6-(1-neopentyl-1H-pyrazol-4-yl)imidazo[1,2-b]pyridazine] returned an IC50 of at most 10 nM.

In turn, `COc1nc(C)ccc1-c1cnc2ccc(-c3ccn(CCC(C)C)c(=O)c3)nn12` [1-isopentyl-4-(3-(2-methoxy-6-methylpyridin-3-yl)imidazo[1,2-b]pyridazin-6-yl)pyridin-2(1H)-one] gave an IC50 of at most 10 nM.

As to `CC(=O)c1cnc2ccc(-c3ccn(CCC(C)C)c(=O)c3)nn12` [4-(3-Acetylimidazo[1,2-b]pyridazin-6-yl)-1-isopentylpyridin-2(1H)-one], the IC50 lay within 10 to 100 nM.

Turning to `COc1ncccc1-c1cnc2ccc(-c3ccn(C[C@@H](N)CC(C)C)c(=O)c3)nn12` [(S)-1-(2-Amino-4-methylpentyl)-4-(3-(2-methoxypyridin-3-yl)imidazo[1,2-b]pyridazin-6-yl)pyridin-2(1H)-one], the IC50 was 10 to 100 nM.

`CC(C)CCn1ccc(-c2ccc3ncc(Cl)n3n2)cc1=O` [4-(3-Chloroimidazo[1,2-b]pyridazin-6-yl)-1-isopentylpyridin-2(1H)-one] registered an IC50 of at most 10 nM.

On to `Cc1cnc2ccc(-c3ccn(CCC(C)C)c(=O)c3)nn12` [1-Isopentyl-4-(3-methylimidazo[1,2-b]pyridazin-6-yl)pyridin-2(1H)-one], for which the IC50 was at most 10 nM.

Turning to `COc1ncccc1-c1cnc2ccc(-c3cnn(CCC(C)C)c3)nn12` [6-(1-Isopentyl-1H-pyrazol-4-yl)-3-(2-methoxypyridin-3-yl)imidazo[1,2-b]pyridazine], the IC50 was at most 10 nM.

With `CC(C)(C)Cn1cc(-c2ccc3ncc(Cl)n3n2)cn1` [3-Chloro-6-(1-neopentyl-1H-pyrazol-4-yl)imidazo[1,2-b]pyridazine], the IC50 was in the range of 10 to 100 nM.

The compound `COc1ncccc1-c1cnc2ccc(-c3ccn(CCC(C)C)c(=O)c3)nn12` [1-isopentyl-4-(3-(2-methoxypyridin-3-yl)imidazo[1,2-b]pyridazin-6-yl)pyridin-2(1H)-one] showed an IC50 of at most 10 nM.

On to `CC(C)CCn1ccc(-c2ccc3ncc(Br)n3n2)cc1=O` [4-(3-Bromoimidazo[1,2-b]pyridazin-6-yl)-1-isopentylpyridin-2(1H)-one], for which the IC50 was at most 10 nM.

`COc1cnccc1-c1cnc2ccc(-c3cccc(C(=O)CCC(C)C)c3)nn12` [1-(3-(3-(3-Methoxypyridin-4-yl)imidazo[1,2-b]pyridazin-6-yl)phenyl)-4-methylpentan-1-one] gave an IC50 of at most 10 nM.

Staying with this assay, now noted: same assay, given as numeric bound instead of class symbol.
On to `CC(C)OC(=O)n1cc(-c2ccc3nccn3n2)cn1` [Isopropyl 4-(imidazo[1,2-b]pyridazin-6-yl)-1H-pyrazole-1-carboxylate], for which the IC50 is over 300 nM.

Consider `CC(C)C[C@@H](Cn1ccc(-c2ccc3nccn3n2)cc1=O)N1C(=O)c2ccccc2C1=O` [(S)-2-(1-(4-(Imidazo[1,2-b]pyridazin-6-yl)-2-oxopyridin-1(2H)-yl)-4-methylpentan-2-yl)isoindoline-1,3-dione], for which the IC50 was over 300 nM.

The compound `CC(C)C[C@H](N)Cn1ccc(-c2ccc3nccn3n2)cc1=O` [(S)-1-(2-Amino-4-methylpentyl)-4-(imidazo[1,2-b]pyridazin-6-yl)pyridin-2(1H)-one] displayed an IC50 of over 300 nM.

`Cc1cnc2ccc(-c3ccn(C[C@@H](N)CC(C)C)c(=O)c3)nn12` [(S)-1-(2-Amino-4-methylpentyl)-4-(3-methylimidazo[1,2-b]pyridazin-6-yl)pyridin-2(1H)-one] gave an IC50 of over 300 nM.

With `CC(C)(C)Cn1cc(-c2ccc3nccn3n2)cn1` [6-(1-Neopentyl-1H-pyrazol-4-yl)imidazo[1,2-b]pyridazine], the IC50 was over 300 nM.

The next assay concerns the target T1, AAK1 (full length human) transfected with Flag/AP2MI in HEK293F cells; phospho-mu2 (Homo sapiens, UniProt Q2M2I8).
T1 construct: HA; expressed in transfected cells; host or cells: HEK293F
As to the kind of experiment: HEK281 cell-based assay. To be noted: HEK293F cells transfected with human AAK1 and AP2M1, 3 hours with compound, phospho-mu2 Western blot normalized to total Mu2. On the procedure:
HEK293F cells were cultured in media containing DMEM (Gibco, cat. #11965), 10% FBS (SAFC Biosciences, cat. #12103C), 1×GPS (glutamine, penicillin and streptomycin). On day one, cells were plated on a 10 cm dish so that they are ˜80% confluent at time of transfection. Roughly 12 million cells were in a 10 cm dish at time of transfection. On day two, each dish was transfected with 48 ug DNA and 144 ul Lipofectamine 2000 (Invitrogen, cat.#11668-019). The DNA was comprised of a mixture (per 10 cm dish) containing 3 ug AAK1/HA/pIRES (full length human, NCBI accession no. NP_055726.2), 45 μg Flag/AP2MI/pcDNA (full length human), and 1.5 ml OPTI-MEM. The Lipofectamine 2000 is made up of a mixture (per 10 cm dish) containing 144 μl Lipofectamine 2000 and 1.5 ml OPTI-MEM. Each mixture was transferred to individual 15 ml tubes and incubated at room temperature for 5 minutes, and then the two mixes were combined and incubated at room temperature for 20 minutes. Growth media was then aspirated from each 10 cm plate and replaced with 10 ml of DMEM+10% FBS (no GPS). Finally, 3 ml DNA/Lipofectamine mix was added to each 10 cm dish and mix gently followed by incubate of plate overnight at 37° C. and 5% CO2.
On day three, compounds were diluted in 100% DMSO at 1000× final concentration, followed by 3-fold serial dilutions for a total of 5 concentrations tested. Four compounds were tested per 10 cm dish. One ul of each compound dilution was then pipetted into a deep-well, 96-well plate, followed by addition of 500 μl DMEM+0.5% FBS into each well for a 2× final concentration of each compound. Cells were resuspended in a 10 cm dish by simple pipetting (HEK293 cells come off the plate that easy at this point) and then transferred to a 50 ml conical tube and pelleted by centrifugation at 1000 rpm for 5 min. Cell pellets were then resuspended in 2.75 ml DMEM+0.5% FBS per 10 cm dish and 100 μl of cell suspension transferred into each well of 96-well TC plate. Finally, 100 μl of 2× compound diluted in DMEM+0.5% FBS was then added into wells containing cell suspension for a 1× final concentration. Plates were then incubated at 37° C. and 5% CO2 for 3 hours followed by transferring of cell suspensions from each well into 12-tube PCR strips. The PCR strips were spun in a tip rack at 1000 rpm for 5 minutes to pellet cells and media was then removed by pipetting without disturbing the cell pellet.
To prepare for Western Blot analysis, cell pellets were resuspend in 40 ul 1×LDS-PAGE sample buffer (Invitrogen, cat.# NP0008) +2× Halt phophatase and protease inhibitor cocktail (Thermo Scientific, cat.#1861284), followed by sonicating each with microtip sonicator set at 5 for 8-10 seconds. Five ul of 10× NuPage Sample Reducing Agent (with […]) was to each sample followed by heat denaturing at 70 C for 10 min on PCR machine. A total of 10 μl per sample was loaded into each lane of a 4-20% Tris-Glycine Criterion 26-well gel (Biorad, cat.#345-0034) for the phospho-mu2 blot and 10 μl per lane in a 4-12% Bis-Tris (+MES buffer) NuPAGE 26-well gel (Invitrogen, cat.# WG1403BX10) for the mu2 blot. For controls, 2 ng of phospho-mu2 or 20 ng mu2/Flag proteins were loaded in the last well of each gel. After SDS-PAGE, samples on each gel were transferred to PVDF membrane using an iBlot and membranes were blocked for one hour in TBST+5% milk, followed by wash 3× for 5-10 min with TBST. Criterion gels were probed with rabbit anti-phospho-mu2 (1:5000; a rabbit polyclonal antibody produced by New England Peptide and affinity purified at Lexicon) in TBST+5% BSA, whereas, NuPAGE gels were probed with mouse anti-Flag (1:500; Sigma, cat.# F1804) in TBST+5% milk, and these primary antibodies were incubated overnight at 4° C. on a rocker. […]
As for `CC(=O)c1cccc(-c2ccc3ncc(Br)n3n2)c1` [1-(3-(3-Bromoimidazo[1,2-b]pyridazin-6-yl)phenyl)ethanone], the “CBA IC50” value is “* (“*” means less than or equal to 1.0 μM)”.

The record behind these values is patent US20150183791A1, “IMIDAZO[1,2-b]PYRIDAZINE-BASED COMPOUNDS, COMPOSITIONS COMPRISING THEM, AND METHODS OF THEIR USE” (LEXICON PHARMACEUTICALS, INC., priority 2013, published 2015).
